Laboratory results: US8680052B1, “Methods of treating, reducing the incidence of, and/or preventing ischemic events” (The Medicines Company, priority 2013, dated 2014)
Read-outs that look alike come from different tables or passages of the source.

Test system: patients with acute coronary syndromes undergoing PCI
[1] = 48-hour, MITT Without STEMI, cangrelor vs clopidogrel
[2] = 48-hour, MITT Without STEMI, exploratory
[3] = 48 hours, ITT With STEMI, Cangrelor vs Clopidogrel
[4] = 48 hours, ITT Without STEMI, Cangrelor vs Clopidogrel
[5] = 48 hours, ITT, Cangrelor vs Clopidogrel
[6] = 48 hours, MITT With STEMI, Cangrelor vs Clopidogrel
[7] = 48 hours, MITT Without STEMI, Cangrelor vs Clopidogrel
[8] = 48 hours, MITT, Cangrelor vs Clopidogrel

Experimental: Patients were eligible for enrollment if they had stable angina, unstable angina, or non-ST-segment elevation (NSTE) MI with obstructive coronary artery disease and were scheduled to undergo PCI.
The infusion began within 30 minutes prior to PCI and continued for at least 2 hours or until the conclusion of the index procedure, whichever was longer. At the treating physician's discretion, the infusion could be continued for 4 hours.
All patients received aspirin 75-325 mg per local site standards. Adjunctive anticoagulants (unfractionated heparin, low molecular weight heparin, bivalirudin, or fondaparinux) and the procedural use of glycoprotein IIb/IIIa inhibitors were determined by the treating physician.
The primary efficacy endpoint was the 48-hour composite of all-cause mortality, MI, or ischemia-driven revascularization. Prespecified secondary efficacy endpoints included the composite of mortality or MI at 48 hours and 30 days; the composite of mortality, MI, or ischemia-driven revascularization at 30 days; the components of the composite endpoints at 48 hours and 30 days; stroke at 48 hours; abrupt closure, threatened abrupt closure, need for urgent coronary artery bypass grafting, or unsuccessful procedure during the index PCI; acute (24 hours) and 48 hours stent thrombosis; and all-cause mortality at 6 months and 1 year.
Rates of MI and ischemia-driven revascularization up to 30 days following the index procedure were assessed. Ischemia-driven revascularization was defined as symptoms of myocardial ischemia leading to urgent (within 24 hours of the last episode of ischemia) revascularization, which must have occurred after the index procedure concluded (i.e., guidewire removal). New electrocardiographic changes, acute pulmonary edema, ventricular arrhythmias, or hemodynamic instability could also constitute evidence of ischemia.
MI was defined by a new Q wave (duration >0.03 seconds) in two contiguous electrocardiographic leads or elevations in creatine kinase (CK) and CK-MB, including a rise of CK-MB≧3 times the local upper limit or normal and, when biomarkers were elevated prior to PCI, an additional 50% above baseline. One baseline troponin measurement was required for patients undergoing urgent PCI. Measurements of CK-MB were obtained at 2, 10, 17, and 24 hours post-PCI.
The primary efficacy analysis was to be determined in the modified intent-to-treat (mITT) population, defined as all randomized patients (excluding STEMI cohort) who received at least one dose of study drug and underwent the index PCI. The safety population consisted of all randomized patients who received any study drug. Patients in the safety analyses were assigned to a treatment arm based on treatment received, not as randomized.

SMILES: CSCCNc1nc(SCCC(F)(F)F)nc2c1ncn2[C@@H]1O[C@H](COP(=O)(O)OP(=O)(O)C(Cl)(Cl)P(=O)(O)O)[C@@H](O)[C@H]1O [Cangrelor, cangrelor]
- All-cause mortality (48-hour, MITT Without STEMI): 8 (0.2)
- IDR (48-hour, MITT Without STEMI): 13 (0.3)
- MI (48-hour, MITT Without STEMI): 278 (7.1)
- Mortality/MI/IDR (primary endpoint) (48-hour, MITT Without STEMI): 290 (7.5)
- Q-wave MI (48-hour, MITT Without STEMI): 4 (0.1)
- Stent thrombosis (48-hour, MITT Without STEMI): 7 (0.2)
- Stroke (48-hour, MITT Without STEMI): 6 (0.2)
- OR (95% CI): All-cause mortality [1]: 1.59 (0.52, 4.87)
- OR (95% CI): IDR [1]: 0.56 (0.28, 1.11)
- OR (95% CI): MI [1]: 1.09 (0.91, 1.29)
- OR (95% CI): Mortality/Q-wave MI/IDR [1]: 0.67 (0.39, 1.14)
- OR (95% CI): Mortality/Q-wave MI/Stent thrombosis [1]: 0.78 (0.42, 1.44)
- OR (95% CI): Q-wave MI [1]: 0.40 (0.12, 1.27)
- OR (95% CI): Stent thrombosis [1]: 0.63 (0.25, 1.63)
- OR (95% CI): Stroke [1]: 0.85 (0.29, 2.54)
- Mortality/Q-wave MI/IDR [2]: 23 (0.6)
- Mortality/Q-wave MI/Stent thrombosis [2]: 18 (0.5)
- All-cause mortality (48 hours, ITT): 9 (0.2) no. (%)
- IDR (48 hours, ITT): 21 (0.5) no. (%)
- MI (48 hours, ITT): 294 (6.7) no. (%)
- Mortality/MI/IDR (48 hours, ITT): 312 (7.1) no. (%)
- Mortality/Q-wave MI/IDR (48 hours, ITT): 32 (0.7) no. (%)
- Mortality/Q-wave MI/Stent thrombosis (48 hours, ITT): 23 (0.5) no. (%)
- Q-wave MI (48 hours, ITT): 4 (0.1) no. (%)
- Stent thrombosis (48 hours, ITT): 11 (0.2) no. (%)
- Stroke (48 hours, ITT): 6 (0.1) no. (%)
- All-cause mortality (48 hours, ITT With STEMI): 1 (0.2) no. (%)
- IDR (48 hours, ITT With STEMI): 6 (1.2) no. (%)
- MI (48 hours, ITT With STEMI): 16 (3.3) no. (%)
- Mortality/MI/IDR (48 hours, ITT With STEMI): 20 (4.1) no. (%)
- Mortality/Q-wave MI/IDR (48 hours, ITT With STEMI): 7 (1.5) no. (%)
- Mortality/Q-wave MI/Stent thrombosis (48 hours, ITT With STEMI): 5 (1.0) no. (%)
- Q-wave MI (48 hours, ITT With STEMI): 0 (0.0) no. (%)
- Stent thrombosis (48 hours, ITT With STEMI): 4 (0.8) no. (%)
- Stroke (48 hours, ITT With STEMI): 0 (0.0) no. (%)
- All-cause mortality OR (95% CI) [3]: 0.209 (0.024, 1.793)
- IDR OR (95% CI) [3]: 0.786 (0.271, 2.283)
- MI OR (95% CI) [3]: 1.900 (0.831, 4.341)
- Mortality/MI/IDR OR (95% CI) [3]: 1.054 (0.560, 1.985)
- Mortality/Q-wave MI/IDR OR (95% CI) [3]: 0.560 (0.222, 1.416)
- Mortality/Q-wave MI/Stent thrombosis OR (95% CI) [3]: 0.580 (0.193, 1.743)
- Stent thrombosis OR (95% CI) [3]: 1.052 (0.262, 4.321)
- All-cause mortality (48 hours, ITT Without STEMI): 8 (0.2) no. (%)
- IDR (48 hours, ITT Without STEMI): 15 (0.4) no. (%)
- MI (48 hours, ITT Without STEMI): 278 (7.1) no. (%)
- Mortality/MI/IDR (48 hours, ITT Without STEMI): 292 (7.4) no. (%)
- Mortality/Q-wave MI/IDR (48 hours, ITT Without STEMI): 25 (0.6) no. (%)
- Mortality/Q-wave MI/Stent thrombosis (48 hours, ITT Without STEMI): 18 (0.5) no. (%)
- Q-wave MI (48 hours, ITT Without STEMI): 4 (0.1) no. (%)
- Stent thrombosis (48 hours, ITT Without STEMI): 7 (0.2) no. (%)
- Stroke (48 hours, ITT Without STEMI): 6 (0.2) no. (%)
- All-cause mortality OR (95% CI) [4]: 1.331 (0.461, 3.839)
- IDR OR (95% CI) [4]: 0.649 (0.338, 1.246)
- MI OR (95% CI) [4]: 1.090 (0.914, 1.299)
- Mortality/MI/IDR OR (95% CI) [4]: 1.056 (0.890, 1.252)
- Mortality/Q-wave MI/IDR OR (95% CI) [4]: 0.711 (0.425, 1.190)
- Mortality/Q-wave MI/Stent thrombosis OR (95% CI) [4]: 0.747 (0.405, 1.379)
- Q-wave MI OR (95% CI) [4]: 0.398 (0.125, 1.272)
- Stent thrombosis OR (95% CI) [4]: 0.634 (0.246, 1.638)
- Stroke OR (95% CI) [4]: 0.855 (0.287, 2.546)
- All-cause mortality OR (95% CI) [5]: 0.821 (0.340, 1.983)
- IDR OR (95% CI) [5]: 0.678 (0.389, 1.182)
- MI OR (95% CI) [5]: 1.122 (0.945, 1.331)
- Mortality/MI/IDR OR (95% CI) [5]: 1.058 (0.898, 1.248)
- Mortality/Q-wave MI/IDR OR (95% CI) [5]: 0.667 (0.425, 1.045)
- Mortality/Q-wave MI/Stent thrombosis OR (95% CI) [5]: 0.698 (0.409, 1.191)
- Q-wave MI OR (95% CI) [5]: 0.401 (0.126, 1.279)
- Stent thrombosis OR (95% CI) [5]: 0.735 (0.337, 1.603)
- Stroke OR (95% CI) [5]: 0.752 (0.261, 2.170)
- All-cause mortality (48 hours, MITT): 9 (0.2) no. (%)
- IDR (48 hours, MITT): 19 (0.4) no. (%)
- MI (48 hours, MITT): 292 (6.7) no. (%)
- Mortality/MI/IDR (48 hours, MITT): 308 (7.1) no. (%)
- Mortality/Q-wave MI/IDR (48 hours, MITT): 30 (0.7) no. (%)
- Mortality/Q-wave MI/Stent thrombosis (48 hours, MITT): 23 (0.5) no. (%)
- Q-wave MI (48 hours, MITT): 4 (0.1) no. (%)
- Stent thrombosis (48 hours, MITT): 11 (0.3) no. (%)
- Stroke (48 hours, MITT): 6 (0.1) no. (%)
- All-cause mortality (48 hours, MITT With STEMI): 1 (0.2) no. (%)
- IDR (48 hours, MITT With STEMI): 6 (1.3) no. (%)
- MI (48 hours, MITT With STEMI): 14 (3.1) no. (%)
- Mortality/MI/IDR (48 hours, MITT With STEMI): 18 (4.0) no. (%)
- Mortality/Q-wave MI/IDR (48 hours, MITT With STEMI): 7 (1.6) no. (%)
- Mortality/Q-wave MI/Stent thrombosis (48 hours, MITT With STEMI): 5 (1.1) no. (%)
- Q-wave MI (48 hours, MITT With STEMI): 0 (0.0) no. (%)
- Stent thrombosis (48 hours, MITT With STEMI): 4 (0.9) no. (%)
- Stroke (48 hours, MITT With STEMI): 0 (0.0) no. (%)
- All-cause mortality OR (95% CI) [6]: 0.249 (0.028, 2.235)
- IDR OR (95% CI) [6]: 0.857 (0.286, 2.571)
- MI OR (95% CI) [6]: 1.778 (0.739, 4.282)
- Mortality/MI/IDR OR (95% CI) [6]: 1.064 (0.541, 2.092)
- Mortality/Q-wave MI/IDR OR (95% CI) [6]: 0.632 (0.243, 1.645)
- Mortality/Q-wave MI/Stent thrombosis OR (95% CI) [6]: 0.622 (0.202, 1.917)
- Stent thrombosis OR (95% CI) [6]: 1.002 (0.249, 4.033)
- All-cause mortality (48 hours, MITT Without STEMI): 8 (0.2) no. (%)
- IDR (48 hours, MITT Without STEMI): 13 (0.3) no. (%)
- MI (48 hours, MITT Without STEMI): 278 (7.1) no. (%)
- Mortality/MI/IDR (Prespecified primary endpoint) (48 hours, MITT Without STEMI): 290 (7.5) no. (%)
- Mortality/Q-wave MI/IDR (48 hours, MITT Without STEMI): 23 (0.6) no. (%)
- Mortality/Q-wave MI/Stent thrombosis (48 hours, MITT Without STEMI): 18 (0.5) no. (%)
- Q-wave MI (48 hours, MITT Without STEMI): 4 (0.1) no. (%)
- Stent thrombosis (48 hours, MITT Without STEMI): 7 (0.2) no. (%)
- Stroke (48 hours, MITT Without STEMI): 6 (0.2) no. (%)
- primary composite of all-cause mortality, MI, or ischemia-driven revascularization (48 hours, MITT Without STEMI): 7.5%
- All-cause mortality OR (95% CI) [7]: 1.591 (0.520, 4.869)
- IDR OR (95% CI) [7]: 0.560 (0.283, 1.108)
- MI OR (95% CI) [7]: 1.085 (0.910, 1.294)
- Mortality/MI/IDR (Prespecified primary endpoint) OR (95% CI) [7]: 1.048 (0.883, 1.243)
- Mortality/Q-wave MI/IDR OR (95% CI) [7]: 0.670 (0.394, 1.140)
- Mortality/Q-wave MI/Stent thrombosis OR (95% CI) [7]: 0.777 (0.419, 1.442)
- Q-wave MI OR (95% CI) [7]: 0.397 (0.124, 1.267)
- Stent thrombosis OR (95% CI) [7]: 0.632 (0.245, 1.631)
- Stroke OR (95% CI) [7]: 0.852 (0.286, 2.536)
- All-cause mortality OR (95% CI) [8]: 0.995 (0.394, 2.508)
- IDR OR (95% CI) [8]: 0.628 (0.353, 1.118)
- MI OR (95% CI) [8]: 1.107 (0.932, 1.315)
- Mortality/MI/IDR OR (95% CI) [8]: 1.049 (0.889, 1.238)
- Mortality/Q-wave MI/IDR OR (95% CI) [8]: 0.661 (0.416, 1.051)
- Mortality/Q-wave MI/Stent thrombosis OR (95% CI) [8]: 0.737 (0.429, 1.265)
- Q-wave MI OR (95% CI) [8]: 0.397 (0.125, 1.268)
- Stent thrombosis OR (95% CI) [8]: 0.729 (0.334, 1.588)
- Stroke OR (95% CI) [8]: 0.852 (0.286, 2.538)
- All-cause mortality (48 hours, Safety population): 9 (0.2) no. (%)
- IDR (48 hours, Safety population): 19 (0.4) no. (%)
- MI (48 hours, Safety population): 294 (6.7) no. (%)
- Mortality/MI/IDR (48 hours, Safety population): 310 (7.1) no. (%)
- Mortality/Q-wave MI/IDR (48 hours, Safety population): 30 (0.7) no. (%)
- Mortality/Q-wave MI/Stent thrombosis (48 hours, Safety population): 23 (0.5) no. (%)
- Q-wave MI (48 hours, Safety population): 4 (0.1) no. (%)
- Stent thrombosis (48 hours, Safety population): 11 (0.3) no. (%)
- Stroke (48 hours, Safety population): 6 (0.1) no. (%)
- All-cause mortality (30 days, ITT): 40 (0.9) no. (%)
- IDR (30 days, ITT): 62 (1.4) no. (%)
- MI (30 days, ITT): 318 (7.3) no. (%)
- Mortality/MI/IDR (30 days, ITT): 381 (8.7) no. (%)
- Mortality/Q-wave MI/IDR (30 days, ITT): 102 (2.3) no. (%)
- Mortality/Q-wave MI/Stent thrombosis (30 days, ITT): 68 (1.6) no. (%)
- Q-wave MI (30 days, ITT): 9 (0.2) no. (%)
